Source: patent publication US20080293696A1, “2-Aminoarylcarboxamides Useful as Cancer Chemotherapeutic Agents” (Bayer Pharmaceuticals Corporation, priority 2004, published 2008)

Test system: PAKT/PKB (p-(S473) AKT) in H209 small cell lung carcinoma cells stimulated with Stem Cell Factor
Experiment: PAKT/PKB Cytoblot Assay with H209 cells (SCF-stimulated p-(S473) AKT)
Format: cell-based
Conditions: Homo sapiens, NCI-H209, compound 1 hour, SCF 25 ng/mL 5 minutes, group: between 500 nM and 1 μM (units in value)
In short: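 H209 SCLC cells kept overnight in RPMI with 0.1% BSA were pretreated 1 h at 37 °C with compound (0.01–10 μM final), then stimulated with SCF 25 ng/mL for 5 min. After formaldehyde/methanol fixation, p-(S473) AKT was detected in-cell with HRP secondary and ECL chemiluminescence, and IC50 was derived.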

| SMILES | IC50 |
| --- | --- |
| O=C(NCc1ccccc1)Nc1cc(CNc2ccccc2C(=O)Nc2ccc3c(c2)OC(F)(F)O3)ccn1 [Example 172, 2-{[(2-{[(benzylamino)carbonyl]amino}pyridin-4-yl)methyl]amino]-N-(2,2-difluoro-1,3-benzodioxol-5-yl)benzamide] | 500 to 1000 nM |
| O=C(Nc1ccc2c(c1)C(F)(F)OC(F)(C(F)(F)F)O2)c1cccnc1NCc1ccncc1 (centres unmarked) [Example 16, 2-[(Pyridin-4-ylmethyl)amino]-N-[2,4,4-trifluoro-2-(trifluoromethyl)-4H-1,3-benzodioxin-6-yl]nicotinamide] | 500 to 1000 nM |

Same assay, conditions: Homo sapiens, NCI-H209, compound 1 hour, SCF 25 ng/mL 5 minutes, group: between 1 and 3 μM

| SMILES | IC50 |
| --- | --- |
| COc1cccc(NC(=O)Nc2cc(CNc3ccccc3C(=O)Nc3ccc4c(c3)OC(F)(F)O4)ccn2)c1 [Example 167, N-(2,2-difluoro-1,3-benzodioxol-5-yl)-2-({[2-({[(3-methoxyphenyl)amino]carbonyl}amino)pyridin-4-yl]methyl}amino)benzamide] | 1000 to 3000 nM |
| N#Cc1cc(CNc2cc(F)c(F)cc2C(=O)Nc2ccc3c(c2)OC(F)(F)O3)ccn1 [Example 36, 2-{[(2-cyanopyridin-4-yl)methyl]amino}-N-(2,2-difluoro-1,3-benzodioxol-5-yl)-4,5-difluorobenzamide] | 1000 to 3000 nM |
| CN(C)C(=O)c1cc(CNc2ccc(F)cc2C(=O)Nc2ccc3c(c2)OC(F)(F)O3)ccn1 [Example 42, 4-{[(2-{[(2,2-difluoro-1,3-benzodioxol-5-yl)amino]carbonyl}-4-fluorophenyl)amino]methyl}-N,N-dimethylpyridine-2-carboxamide] | 1000 to 3000 nM |
| COc1ccc(CCNC(=O)c2cc(CNc3ccccc3C(=O)Nc3ccc4c(c3)OC(F)(F)O4)ccn2)cc1 [Example 122, 4-{[(2-{[(2,2-difluoro-1,3-benzodioxol-5-yl)amino]carbonyl}phenyl)amino]methyl}-N-[2-(4-methoxyphenyl)ethyl]pyridine-2-carboxamide] | 1000 to 3000 nM |

Same assay, conditions: Homo sapiens, NCI-H209, compound 1 hour, SCF 25 ng/mL 5 minutes, group: less than 500 nM

| SMILES | IC50 |
| --- | --- |
| CCOC(=O)CCC(=O)N(C(=O)CCC(=O)OCC)c1cc(CNc2ccccc2C(=O)Nc2ccc3c(c2)OC(F)(F)O3)ccn1 [Example 158, diethyl 4,4′-[(4-{[(2-{[(2,2-difluoro-1,3-benzodioxol-5-yl)amino]carbonyl}phenyl)amino]methyl}pyridin-2-yl)imino]bis(4-oxobutanoate)] | < 500 nM |
| COC(=O)c1cc(CNc2ccccc2C(=O)Nc2ccc3c(c2)OC(F)(F)O3)ccn1 [Example 76, methyl 4-{[(2-{[(2,2-difluoro-1,3-benzodioxol-5-yl)amino]-carbonyl}phenyl)amino]methyl}pyridine-2-carboxylate] | < 500 nM |
| COc1cccc(NCc2ccncc2)c1C(=O)Nc1ccc2c(c1)OC(F)(F)O2 [Example 11, N-(2,2-difluoro-1,3-benzodioxol-5-yl)-2-methoxy-6-[(pyridin-4-ylmethyl)amino]benzamide] | < 500 nM |
| CNC(=O)c1cc(CNc2cc(F)c(F)cc2C(=O)Nc2ccc3c(c2)OC(F)(F)C(F)(F)O3)ccn1 [Example 37, 4-{[(4,5-difluoro-2-{[(2,2,3,3-tetrafluoro-2,3-dihydro-1,4-benzodioxin-6-yl)amino]carbonyl}phenyl)amino]methyl}-N-methylpyridine-2-carboxamide] | < 500 nM |
| CCNC(=O)Nc1cc(CNc2ccccc2C(=O)Nc2ccc3c(c2)OC(F)(F)O3)ccn1 [Example 162, N-(2,2-difluoro-1,3-benzodioxol-5-yl)-2-{[(2-{[(ethylamino)carbonyl]amino}pyridin-4-yl)methyl]amino}benzamide] | < 500 nM |
